Measured values reported in US8002614B2, “Microbiocidal control in the processing of meat-producing four-legged animals” (priority 2005, dated 2011).

Format: physicochemical
From the text: In many high output meat packing plants, space to install the biocide feeder in an easily accessible location is not readily available. The smaller area required for a BCDMH feeder system relative to a DBDMH system, is advantageous with respect to installation flexibility. For example, because of higher bromine output, a plant utilizing BCDMH may utilize a smaller number of biocide feeders than a plant utilizing DBDMH feeders. Also, because each point of application of aqueous biocide in the plant requires a certain bromine residual in a certain flow of water, the much higher output of bromine from a BCDMH feeder to achieve the desired bromine residual, requires much less water flow to the feeder for BCDMH than DBDMH. Since the source of water and the feeder are often quite distant from each other, a need for providing a new line just for the feeder is disadvantageous and expensive. But, pursuant to this invention, oftentimes excess water supplied to existing equipment near the feeder can be employed thereby eliminating the need for installation of a new special water line to the feeder. In other words, since BCDMH requires less than half the water flow of DBDMH, in many situations this water source would have sufficient flow for BCDMH while that same flow would be insufficient for DBDMH. […]

Question: For CC1(C)C(=O)N(Cl)C(=O)N1Br [BCDMH, N,N′-bromochloro-5,5-dimethylhydantoin], which water solubility is on record?
Answer: The water solubility was 890 ppm.

Question: For CC1(C)C(=O)N(Br)C(=O)N1Br [DBDMH, 1,3-dibromo-5,5-dimethylhydantoin], which water solubility is on record?
Answer: The water solubility was 405 ppm.
